Reference: patent EP1428528A1, “Synergistic combinations of dietary fiber and NSAIDs for the treatment of cancer” (Tiense Suikerraffinaderij N.V., priority 2002, dated 2004)
Marks after values point to notes of the source that are not given here.

Key:
[1] = tested on: azoxymethane-induced aberrant crypt foci in rat colon; experiment: Aberrant crypt foci (ACF) study in azoxymethane-treated rats, Example 2 (same protocol as Example 1); type: in vivo, Fisher 344 male rats
Procedure: (§1) After 1 week of acclimatisation, 100 male Fisher 344 weanling rats were divided into 10 groups of 10 rats per group and assigned the AIN93G (Control) diet or the experimental diets for 13 weeks. For the study, temperature was maintained at 21°C ± 1°C, relative humidity at 50%, and light and dark cycles at 12 hours each. Feed and water were provided ad libitum. Weekly body weights and daily feed intake were recorded. After adaptation, all animals received two subcutaneous injections of azoxymethane (AOM) in saline at 16mg/kg body weight at 7 and 8 weeks of age. At the end of the feeding period, the animals were sacrificed using CO2 euthanasia after an overnight's fast. Accordingly, the colons of the rats were removed, flushed with potassium phosphate buffer 0.1M (pH 7.2) and examined for aberrant crypt foci (ACF) and tumours.
In example 2, experiments similar to the ones of example 1 were carried out, to examine the anti-cancer effects of a composition containing a combination of RAFTILINE® HP and sulindac. The 4 groups each of 10 Fisher 344 male rats were given a diet containing either control diet, control diet + RAFTILINE®HP, control diet + sulindac, or control diet + RAFTILINE®HP + sulindac (RAFTILINE® : trade name of RT/TS, Belgium). The protocol of the experiments was the same as the one of example 1.

[2] = tested on: azoxymethane-induced aberrant crypt foci in rat colon; experiment: Aberrant crypt foci (ACF) study in azoxymethane-treated rats, Example 1; type: in vivo, male Fisher 344 weanling rats; details: for Total ACF / Number of foci with 1 aberrant crypt per focus / Number of foci with 2 aberrant crypts per focus / Number of foci with 3 aberrant crypts per focus / Number of foci with 4 aberrant crypts per focus / Number of foci with 5(+) (5 and more) aberrant crypts per focus: Example 1, Table 3; for Total ACF / Number of foci with 1 aberrant crypt per focus / Number of foci with 2 aberrant crypts per focus / Number of foci with 3 aberrant crypts per focus / Number of foci with 4 aberrant crypts per focus / Number of foci with 5(+) (5 and more) aberrant crypts per focus / Number of AOM-induced ACF in rat colon in proximal part / Number of AOM-induced ACF in rat colon in distal part / Number of AOM-induced ACF in rat colon in total ACF in colon: Means ± SE, n=10; for Number of foci with 1 aberrant crypt per focus / Number of foci with 2 aberrant crypts per focus / Number of foci with 3 aberrant crypts per focus / Number of foci with 4 aberrant crypts per focus / Number of foci with 5(+) (5 and more) aberrant crypts per focus: proximal and distal colon; for Number of AOM-induced ACF in rat colon in proximal part / Number of AOM-induced ACF in rat colon in distal part / Number of AOM-induced ACF in rat colon in total ACF in colon: diet 13 weeks, inulin 100 g/kg and/or NSAID 0.2 g/kg diet; for Number of AOM-induced ACF in rat colon in proximal part: AOM 16mg/kg s.c. at 7 and 8 weeks of age; for Number of AOM-induced ACF in rat colon in distal part / Number of AOM-induced ACF in rat colon in total ACF in colon: AOM 16mg/kg s.c.
Procedure: The inulin used was Synergy1 (in short Syn1) and Synergy2 (in short Syn2), which are mixtures of oligofructose (RAFTILOSE®) and inulin of av. DP of 23 to 25 (RAFTILINE®) with a total content of inulin with a DP 9 and DP 10 of maximally 5 % by weight, at a weight ratio of 1:1 and 1:2, respectively, obtained from ORAFTI (Belgium) (RAFTILOSE® and RAFTILINE® are trade names of RT/TS, Belgium). The diets were prepared fresh every week and stored at 4°C until fed. The experimental diets were formulated based on AIN 93G diets. The ingredients were obtained from ICN Biomedicals, Aurora, OH, USA. All other chemicals were obtained from Sigma Chemical Co., St. Louis, MO, USA. All the protocols involving rats have been approved by the Institutional Animal Care and Use Committee of Alabama A& M University.
as §1

colorectal adenomas = details: patients with familial adenomatous polyposis; cited from earlier work
[3] = Example 2, Table 6, Means ± SEM
[4] = Example 2, inulin 100 g/kg and/or sulindac 0.2 g/kg diet, Means ± SE, n as indicated

SMILES | Total ACF [2] | Number of foci with 1 aberrant crypt per focus [2] | Number of foci with 2 aberrant crypts per focus [2] | Number of foci with 3 aberrant crypts per focus [2] | Number of foci with 4 aberrant crypts per focus [2] | Number of foci with 5(+) (5 and more) aberrant crypts per focus [2] | Number of AOM-induced ACF in rat colon in proximal part ([2]; Example 1) | Number of AOM-induced ACF in rat colon in distal part ([2]; Example 1) | Number of AOM-induced ACF in rat colon in total ACF in colon ([2]; Example 1) | also measured
CC1=C(CC(=O)O)c2cc(F)ccc2/C1=C\c1ccc([S+](C)[O-])cc1 (centres unmarked) [Sulindac] | 73.87 ± 4.25 ^b | 4.08 ± 0.48^c | 12.14± 2.04^b | 20.37 ± 2.40^b | 20.48 ± 2.48^b | 16.80 ± 0.78^b | 11.24 ± 0.90^b | 62.58 ± 1.68^b | 73.87 ± 4.25 ^b | overall reduction in ACF (total colon) compared to the control diet ([1]; Example 2): about 52%; reduction of ACF in the distal colon compared to the control diet group ([1]; Example 2): about 44%; reduction of ACF in the proximal colon compared to the control diet group ([1]; Example 2): about 74%; Number of foci with 1 aberrant crypt per focus [1, 3]: 3.50 ± 0.38 ^b; Number of foci with 2 aberrant crypts per focus [1, 3]: 11.67 ± 1.19^b; Number of foci with 3 aberrant crypts per focus [1, 3]: 22.17± 1.03 ^c; Number of foci with 4 aberrant crypts per focus [1, 3]: 22.50 ± 0.86^b; Number of foci with 5(+) (5 and more) aberrant crypts per focus [1, 3]: 15.33 ± 0.45 ^c; Total ACF [1, 3]: 75.08 ± 1.93^d; foci with 3, 4 and 5 or more aberrant crypts compared to the other groups ([1]; Example 2, statement in text): significantly lower (p<0.05); Number of AOM-induced ACF in rat colon in distal part [1, 4]: 64.50 ± 1.54^d; Number of AOM-induced ACF in rat colon in proximal part [1, 4]: 10.58 ± 0.90^c; Number of AOM-induced ACF in rat colon, Total ACF in colon [1, 4]: 75.1 ± 1.93; reduction of the incidence of ACF compared to the controls ([2]; Example 1, inulin at 10 % level and/or NSAID in diet): about 53%; number and size of colorectal adenomas compared to patients given placebo (colorectal adenomas): significantly reduce the number and size of colorectal adenomas
CC(=O)Oc1ccccc1C(=O)O [Aspirin, acetyl salicylate] | 64.40 ± 3.46^c | 6.50 ± 1.12^b | 12.48 ± 1.23^b | 17.42 ± 1.94^b | 15.86 ± 1.82^c | 12.14 ± 0.86^b | 10.26 ± 1.11^b | 54.14 ± 1.96^b | 64.40 ± 3.46^c | –
CN1C(C(=O)Nc2ccccn2)=C(O)c2ccccc2S1(=O)=O [Piroxicam] | 62.64 ± 2.86^c | 4.18 ± 1.04^c | 13.16 ± 1.54^b | – | 14.78 ± 1.94^c | 14.24 ± 0.94^b | 12.16 ± 1.04^b | 50.48 ± 1.09^b | 62.64 ± 2.86^c | –
